# Experimental data published in patent US11174245B2, “Benzimidazole compounds and derivatives as EGFR inhibitors” (Boehringer Ingelheim International GmbH, priority 2018, dated 2021).
# Target: EGFR del19 T790M C797S protein in Ba/F3 cells (Homo sapiens, UniProt P00533, C797S/DEL746-750/T790M)
# Assay: pEGFR assay (AlphaScreen Surefire, EGFR Tyr1068 phosphorylation)
# Format: cell-based
# Method: Transduced cells were selected using puromycin. Following selection, IL-3 was withdrawn and IL-3 independent cells cultured. p-EGFR Tyr1068 was determined using the AlphaScreen Surefire pEGF Receptor (Tyr1068) Assay (PerkinElmer, TGRERS). […] Subsequently, 60.000 cells/well in 60 μL were added. Cells were incubated with compound for 4 h at 37° C. […] The mixture was incubated at room temperature with shaking (700 rpm) for 20 min. After centrifugation, 4 μL of the lysate were transferred to Proxiplates. […] Plates were shaken for 1 min (1400 rpm) and incubated for 2 h at room temperature in the dark.
# The results of the assay are provided as IC50 values (see table 12).
# Chain of EGFR del19 T790M C797S protein in Ba/F3 cells (P00533 with tags, fused parts or gaps C797S/DEL746-750/T790M limits assumed): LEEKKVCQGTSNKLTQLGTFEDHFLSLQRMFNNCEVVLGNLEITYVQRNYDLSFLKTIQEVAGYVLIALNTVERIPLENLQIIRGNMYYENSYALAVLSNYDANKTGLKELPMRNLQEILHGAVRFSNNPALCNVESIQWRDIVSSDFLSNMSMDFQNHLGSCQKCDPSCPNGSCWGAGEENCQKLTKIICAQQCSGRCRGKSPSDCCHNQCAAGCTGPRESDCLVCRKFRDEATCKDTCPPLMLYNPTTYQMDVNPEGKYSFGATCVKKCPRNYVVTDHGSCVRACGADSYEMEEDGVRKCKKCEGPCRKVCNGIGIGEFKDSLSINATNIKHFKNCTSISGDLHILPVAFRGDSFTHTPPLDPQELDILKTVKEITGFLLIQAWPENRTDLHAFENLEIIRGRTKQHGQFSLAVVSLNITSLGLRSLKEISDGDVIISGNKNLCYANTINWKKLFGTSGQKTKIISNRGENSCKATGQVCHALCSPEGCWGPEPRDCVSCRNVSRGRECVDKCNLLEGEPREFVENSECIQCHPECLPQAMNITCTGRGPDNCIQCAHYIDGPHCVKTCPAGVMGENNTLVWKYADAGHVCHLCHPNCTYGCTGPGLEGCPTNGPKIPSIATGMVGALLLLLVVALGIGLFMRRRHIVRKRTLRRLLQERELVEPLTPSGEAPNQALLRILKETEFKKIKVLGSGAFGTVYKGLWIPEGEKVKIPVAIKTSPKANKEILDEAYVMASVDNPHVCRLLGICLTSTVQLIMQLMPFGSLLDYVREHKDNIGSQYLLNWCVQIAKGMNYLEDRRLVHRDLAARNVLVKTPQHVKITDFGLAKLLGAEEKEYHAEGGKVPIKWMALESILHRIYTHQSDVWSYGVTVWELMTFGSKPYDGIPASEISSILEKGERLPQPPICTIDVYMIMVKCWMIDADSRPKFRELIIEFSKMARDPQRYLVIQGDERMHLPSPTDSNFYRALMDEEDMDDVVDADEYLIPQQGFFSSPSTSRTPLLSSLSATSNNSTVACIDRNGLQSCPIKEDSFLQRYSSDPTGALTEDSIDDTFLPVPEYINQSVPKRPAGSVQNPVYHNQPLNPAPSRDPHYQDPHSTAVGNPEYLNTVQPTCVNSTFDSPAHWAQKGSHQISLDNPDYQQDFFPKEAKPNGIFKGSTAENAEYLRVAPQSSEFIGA
row,IC50 [nM],Compound
1,4,COC[C@H]1CCCN1Cc1ccc2c(c1)[nH]/c(=N\C(=O)c1ccnc(-c3ccccc3OC)c1)n2[C@H]1CC[C@@H](O)CC1 [I-152]
2,76,CNC(=O)c1cccc(-c2cc(C(=O)/N=c3\[nH]c4ccccc4n3CC(C)(C)O)ccn2)c1 [I-100]
3,7,Cn1cc(-c2cc(C(=O)/N=c3\[nH]c4cc(C5CCCCO5)ccc4n3CC(C)(C)O)ccn2)cn1 (stereo not shown) [I-165]
4,6,COc1ccccc1-c1cc(C(=O)/N=c2\[nH]c3cc(CN4CC[C@@H](OC)C4)ccc3n2[C@H]2CC[C@@H](O)CC2)ccn1 [I-159]
5,7,Cn1cc(-c2cc(C(=O)/N=c3\[nH]c4ccccc4n3C3CCOCC3)ccn2)cn1 [I-049]
6,30,COCCN(C)c1ccc2c(c1)[nH]/c(=N\C(=O)c1ccnc(-c3cccnc3)c1)n2CC(C)(C)O [I-065]
7,43,CN(C)C(=O)c1cccc(-c2cc(C(=O)/N=c3\[nH]c4ccccc4n3CC(C)(C)O)ccn2)c1 [I-103]
8,1,CN1CCN(c2ccc3[nH]/c(=N\C(=O)c4cc(F)nc(-c5cnn(C)c5)c4)n(C4CCCCC4)c3c2)CC1 [I-232]
9,15,Cn1cnc2c(-c3cc(C(=O)/N=c4\[nH]c5ccccc5n4[C@H]4CC[C@@H](O)CC4)ccn3)cccc21 [I-182]
10,2,COc1ccccc1-c1cc(C(=O)/N=c2\[nH]c3ccccc3n2[C@@H]2CCC[C@@H](O)C2)ccn1 [I-139]
11,24,CC(C)(O)Cn1/c(=N/C(=O)c2ccnc(-c3ccsc3)c2)[nH]c2ccccc21 [I-050]
12,3,COc1ccccc1-c1cc(C(=O)/N=c2\[nH]c3cc(C4CCNCC4)ccc3n2[C@H]2CC[C@@H](O)CC2)ccn1 [I-120]
13,9,Cn1cc(-c2cc(C(=O)/N=c3\[nH]c4ccccc4n3[C@@H]3CCCC[C@H]3O)ccn2)cn1 [I-154]
14,21,CCc1ccc2[nH]/c(=N\C(=O)c3ccnc(-c4cccnc4)c3)n(CC(C)(C)O)c2c1 [I-84]
15,42,COc1cccc(-c2cc(C(=O)/N=c3\[nH]c4ccccc4n3CC(C)(C)O)ccn2)c1 [I-99]
16,2,COc1ccccc1-c1cc(C(=O)/N=c2\[nH]c3cc(C4CCN(C)CC4)ccc3n2[C@H]2CC[C@@H](O)CC2)ccn1 [I-124]
17,12,CN(C)Cc1cccc(-c2cc(C(=O)/N=c3\[nH]c4ccccc4n3C3CCCCC3)ccn2)c1 [I-117]
18,1,Cc1ccc2c(c1)[nH]/c(=N\C(=O)c1ccnc(-c3cnn(C)c3)c1)n2[C@H]1CC[C@@H](O)CC1 [I-134]
19,2,Cc1cc(C(=O)/N=c2\[nH]c3ccc(C4CCN(C)CC4)cc3n2C2CCCCC2)cc(-c2cnn(C)c2)n1 [I-228]
20,30,CC(C)(O)Cn1/c(=N/C(=O)c2ccnc(-n3ccc4cccnc43)c2)[nH]c2ccccc21 [I-188]
21,99,CN(C)c1cccc(-c2cc(C(=O)/N=c3\[nH]c4ccccc4n3CC(C)(C)O)ccn2)c1 [I-94]
22,85,Cn1cc(-c2cc(C(=O)/N=c3\[nH]c4ccc(F)cc4n3CC(C)(C)O)ccn2)cn1 [I-195]
23,1,CC(C)(O)Cn1/c(=N/C(=O)c2ccnc(-c3cnc4cccnn34)c2)[nH]c2ccccc21 [I-041]
24,18,Cn1cc(-c2cc(C(=O)/N=c3\[nH]c4cc(C5CCNCC5)ccc4n3[C@H]3CC[C@@H](O)CC3)ccn2)cn1 [I-218]
25,14,COc1ccccc1-c1cc(C(=O)/N=c2\[nH]c3ccccc3n2[C@H]2CCCC[C@@H]2O)ccn1 [I-97]
26,97,CC(C)(O)Cn1/c(=N/C(=O)c2ccnc(-c3ccccn3)c2)[nH]c2ccccc21 [I-106]
27,3,COc1ccccc1-c1cc(C(=O)/N=c2\[nH]c3ccccc3n2[C@H]2CCC[C@H](O)C2)ccn1 [I-119]
28,16,CC(C)(O)Cn1/c(=N/C(=O)c2ccnc(-c3cccnc3)c2)[nH]c2cc(CO)ccc21 [I-067]

row,IC50 [nM],Compound
1,2,COc1ccccc1-c1cc(C(=O)/N=c2\[nH]c3ccccc3n2[C@@H]2CCCOC2)ccn1 [I-122]
2,93,Cn1cc(-c2cc(C(=O)/N=c3\[nH]c4cc(CN5CCOCC5)ccc4n3CC(C)(C)O)ccn2)cn1 [I-058]
3,20,COc1ncccc1-c1cc(C(=O)/N=c2\[nH]c3ccccc3n2CC(C)(C)O)ccn1 [I-92]
4,3,CC(C)(O)Cn1/c(=N/C(=O)c2ccnc(-n3cnc4cccnc43)c2)[nH]c2ccccc21 [I-040]
5,4,COc1ccccc1-c1cc(C(=O)/N=c2\[nH]c3cc(CN4CCCC(OC)C4)ccc3n2[C@H]2CC[C@@H](O)CC2)ccn1 (stereo partly shown) [I-153]
6,86,COCCCNc1cc2[nH]/c(=N\C(=O)c3ccnc(-c4cnn(C)c4)c3)n(CC(C)(C)O)c2cc1C [I-71]
7,8,COc1ccccc1-c1cc(C(=O)/N=c2\[nH]c3ccccc3n2[C@H]2CCC[C@H](O)C2)ccn1 [I-170]
8,7,COc1cnccc1-c1cc(C(=O)/N=c2\[nH]c3ccccc3n2CC(C)(C)O)ccn1 [I-164]
9,24,O=C(/N=c1\[nH]c2ccccc2n1[C@H]1CC[C@@H](O)CC1)c1ccnc(-c2ccccc2OC(F)(F)F)c1 [I-187]
10,7,COc1ccccc1-c1cc(C(=O)/N=c2\[nH]c3ccccc3n2[C@@H]2CCCC[C@H]2O)ccn1 [I-132]
11,92,CNC(=O)Cc1ccc2c(c1)[nH]/c(=N\C(=O)c1ccnc(-c3cccnc3)c1)n2CC(C)(C)O [I-131]
12,2,COc1ccccc1-c1cc(C(=O)/N=c2\[nH]c3ccccc3n2[C@H]2CCC[C@@H](O)C2)ccn1 [I-127]
13,2,COCCN1CCC(c2ccc3c(c2)[nH]/c(=N\C(=O)c2ccnc(-c4cccnc4)c2)n3CC(C)(C)O)CC1 [I-046]
14,3,Cn1cc(-c2cc(C(=O)/N=c3\[nH]c4cc(C5CCOCC5)ccc4n3CC(C)(C)O)ccn2)cn1 [I-85]
15,2,COc1ccccc1-c1cc(C(=O)/N=c2\[nH]c3ccccc3n2[C@H]2CCCOC2)ccn1 [I-123]
16,9,COc1ncccc1-c1cc(C(=O)/N=c2\[nH]c3ccccc3n2[C@H]2CC[C@@H](O)CC2)ccn1 [I-173]
17,89,CN(C)C1CCN(c2ccc3c(c2)[nH]/c(=N\C(=O)c2ccnc(-c4cnn(C)c4)c2)n3CC(C)(C)O)C1 (stereo not shown) [I-80]
18,74,Cn1cc(-c2cc(C(=O)/N=c3\[nH]c4cc(C(C)(C)O)ccc4n3CC(C)(C)O)ccn2)cn1 [I-063]
19,14,CN(C)CCNc1ccc2c(c1)[nH]/c(=N\C(=O)c1ccnc(-c3cnn(C)c3)c1)n2CC(C)(C)O [I-82]
20,4,O=C(/N=c1\[nH]c2ccccc2n1[C@H]1CC[C@@H](O)CC1)c1ccnc(-n2ccc3cccnc32)c1 [I-150]
21,6,Cn1cc(-c2cc(C(=O)/N=c3\[nH]c4ccccc4n3C3CCCOC3)ccn2)cn1 (stereo not shown) [I-043]
22,23,COc1ccccc1-c1cc(C(=O)/N=c2\[nH]c3ccccc3n2[C@H]2CCCC[C@H]2O)ccn1 [I-186]
23,4,COc1ccccc1-c1cc(C(=O)/N=c2\[nH]c3cc(CN4CC[C@H](OC)C4)ccc3n2[C@H]2CC[C@@H](O)CC2)ccn1 [I-151]
24,68,CCOC(=O)CCc1ccc2c(c1)[nH]/c(=N\C(=O)c1ccnc(-c3cnn(C)c3)c1)n2CC(C)(C)O [I-193]
25,81,CN(C)CCOCCNc1ccc2c(c1)[nH]/c(=N\C(=O)c1ccnc(-c3cnn(C)c3)c1)n2CC(C)(C)O [I-87]
26,27,CC(C)(O)Cn1/c(=N/C(=O)c2ccnc(-c3cccs3)c2)[nH]c2ccccc21 [I-051]
27,2,Cc1cc(C(=O)/N=c2\[nH]c3ccc(N4CCN(C)CC4)cc3n2C2CCCCC2)cc(-c2cnn(C)c2)n1 [I-233]
